Results: patent US20260276656A1, “GUT MICROBIOTA-RELATED METHODS FOR TREATING DEMENTIA AND AGE-DEPENDENT COGNITIVE DECLINE” (Albert-Ludwigs-Universitat Freiburg, priority 2019, published 2026)
Entries after “also recorded” stand apart in the source; their conditions may differ.

Tests used:
[1] = tested on: C57BL/6J mice; assay: Novel object recognition (NOR) test (recognition memory); format: in vivo, mouse; settings: for recognition memory (Novel Object Recognition test): systemic (intraperitoneal) injection, FIG. 11 right; for NOR test performance: 5 mg/kg i.p. 1 h before
Procedure: In order to acutely deplete the gut microbiota, 15-16 months old SPF males were treated via oral gavage with a mixture of antibiotics (ABX), containing Cefoxitin (Santa Cruz Biotechnology), Gentamicin (Sigma-Aldrich) Metronidazole (Sigma-Aldrich), and Vancomycin (Hikma-pharma), each 10 mg/kg in sterile 1×PBS, for three consecutive days. On the fourth day, the mice were treated with one dose of Clindamycin hydrochloride (33.3 mg/kg) (Sigma-Aldrich). Fecal microbiota transplantations (FMTs) were started 24 h later. To deplete csf1-dependent cells in vivo, including microglia, mice were provided with CSF1R-inhibitor PLX5622 (Plexxicon Inc.) mixed into AIN-76A standard chow at 1200 mg/kg (Research Diets Inc.) ad libitum. Respective controls received AIN-76A standard chow. Mice were injected with 5 mg/kg δ-valerobetaine (MCAT, Germany) 1 h before behavioral testing.
For microbiota depletion studies, SPF mice were treated with 1 mg/ml of ampicillin (Auromedics), neomycin sulfate (Fisher), streptomycin (Sigma) and 0.5 mg/ml of vancomycin (Sagent) in the drinking water for 4-5 weeks (Khosravi et al., 2014). These mice were recolonized via FMT, which was achieved by oral gavage of a faecal slurry. Recipient mice had the food removed from the cage for 2 h prior to FMT. The faecal slurry was obtained by pooling faecal pellets from 8-14 donor mice. The pellets were weighed and resuspended by vortexing for 1 min in 1 mL PBS per 300 mg of faeces. After pelleting larger particles by centrifugation at 500×g for 5 min, the supernatant was collected for FMT. Each recipient mouse received 150 μl of faecal slurry by oral gavage. The remaining slurry was stored at −80° C. for 16S rRNA sequencing. Following FMT, the cages of recipient mice were replenished with dirty bedding and fresh faecal pellets from donor mice once and twice a week, respectively. Faecal pellets for 16S rRNA sequencing were collected the day before FMT and at the end of the experiment and were stored at −80° C. for DNA extraction. For re-colonization of ABX treated mice, FMTs from 8 weeks old or 15-16 months old males were undergone. Fresh fecal pellets are collected under a sterile hood and directly thoroughly homogenized in 0.1% L-Cysteine hydrochloride monohydrate in 1×PBS in order to maintain anaerobic microbes. The homogenates were spun down for 1 min, 200 g at 4° C. and the turbid supernatant was used to orally and rectally gavage the recipient mice. The FMT was performed twice 72 h apart.
NNN-trimethyl-5-aminovalerate was dissolved in 0.9% NaCl and administered i.p. at a dose of 200 mg/kg in a volume of 10 ml/kg. As control the vehicle NaCl was injected.
Mice were tested 40 min after drug- or vehicle injection or 4 weeks after FMT. We first performed the training run for the Novel-object recognition test, followed by the T maze test and then 6 h after the training session mice were tested in the Novel object recognition test. Spatial working memory was tested using the continuous spontaneous alternation task in a T-maze as described previously (Spowart-Manning, L. et al). Briefly, animals were set into the base of a T-maze and allowed to explore a randomly assigned T-maze arm until it returned to the base arm. Subsequently, the blocked arm was opened, and the animal was allowed to explore the complete maze. Once one arm of the T-maze was entered, the other arm was blocked until the animal returned to the base arm. Then, the exit of the base arm was blocked for 5 s and the animal was allowed to explore the maze again. The experiment was stopped after 14 free choice arm entries. Arm entries were scored as alternations if an animal chose the opposing arm compared to the arm visited immediately prior to the scored instance. The Novel Object Recognition (NOR) task was applied to evaluate recognition memory as published previously (Antunes, M. & Biala, G. et al). During the habituation phase, each mouse was allowed to explore two similar objects within a total exploration time of 20 s. […]

[2] = tested on: medial prefrontal cortex neurons; assay: In vivo single unit recordings from medial prefrontal cortex during natural sleep, spike rate and population coupling; parameters: species or system mouse; settings: 5 mg/kg body weight i.p.; versus PBS; normalized to baseline; FIG. 9B
Procedure: C57BL/6J mice aged 10-11 weeks were anesthetized with isofluorane (induction: 3%, maintenance approximately 1.5%). Buprenorphin (0.05-0.1 mg/kg body weight) and Carprofen (4-5 mg/kg body weight) were injected for analgesia. During implantation, the body temperature was maintained with a heating pad. The skin was incised from the cerebellum to the nose and the bone cleaned with 3% H2O2. Ground and reference screws (1 mm diameter) were inserted anterior to the lambdoid suture. A third stabilizing screw was inserted on the left parietal bone. […]
After habituation to the recording room for several days, single-unit recordings were performed at a sampling frequency of 30 kHz using a 32-channel amplifier (Intan Technologies). […] First, a baseline was recorded during sleep identified as epochs when mice were completely immobile in their home cage and slow wave activity could be seen in the PFC local field potential. […]
Recording sections containing artefacts were manually identified and removed. […] Firing rates were estimated from the total number of spikes during the analyzed behavioral episodes divided by the duration. To quantify population synchrony, we utilized a metric that compares the rate change of a given unit to the normalized population rate at each time point. […]

C[N+](C)(C)CCCCC(=O)[O-] [NNN-trimethyl-5-aminovalerate, 5-(trimethylammonio) pentanoate]
NOR: improvement in learning and memory after FMT from young mice ([1]; old mice (15-16 months) +ABX+yFMT, 5 mg/kg i.p. 1 h before testing, FIG. 10G-H): abolished
recognition memory (Novel Object Recognition test) ([1]; old mice (20-24-month-old)): no additional impairing effects
NOR test performance ([1]; old mice that had received gut microbiota from old mice (old+ABX+oFMT), FIG. 10G-H): no additional deteriorating effect
NOR test performance ([1]; young adult mice (8 weeks), versus vehicle, FIG. 10C-D): significantly worse
recognition memory (Novel Object Recognition test) ([1]; young mice (2-month-old), PBS control): reduced
average spike frequency (spike firing rate) [2]: No effect; also recorded: no change
population coupling [2]: significant increase
